Literature values, collected in patent US20190263927A1, “COMBINATION OF A PD-1 ANTAGONIST AND ERIBULIN FOR TREATING UROTHELIAL CANCER” (Merck Sharp & Dohme Corp., priority 2016, published 2019).

System: patients with metastatic UC (mUC)
Settings: eribulin monotherapy; patients with metastatic/advanced UC; NCI Protocol No. 7435

SMILES: C=C1C[C@@H]2CC[C@@]34C[C@H]5O[C@H]6[C@@H](O3)[C@H]3O[C@H](CC[C@@H]3O[C@H]6[C@H]5O4)CC(=O)C[C@@H]3[C@@H](OC)[C@@H](C[C@H](O)CN)O[C@H]3C[C@H]3O[C@@H](CC[C@@H]1O2)C[C@@H](C)C3=C [Eribulin]
- clinical benefit for treatment of patients with mUC: provide clinical benefit
